From patent US11274104B2, “Crystal forms of thiophene derivatives” (Tianjin Hemay Pharmaceutical Co., Ltd, priority 2018, dated 2022)

Columns and labels:
Assay type in all cases: physicochemical
[1] = High temperature stability (40° C., 1 month)
Procedure: (§1) Crystal form II of (S)—N-[5-[1-(3-ethoxy-4-methoxyphenyl)-2-(methylsulfonyl)ethyl]-4,6-dioxo-5,6-dihydro-4H-thieno[3,4-c]pyrrole-1-yl]acetamide prepared according to the process of Example 1 was placed at 40° C. (high temperature). After 1 month, liquid chromatogram and DSC were tested.

[2] = Accelerated stability (40° C., RH 75%, 1 month)
Procedure: as §1, with “placed in a stability text box” for “placed”, “and Rh=75%.” for “(high temperature).”

[3] = Illumination stability (4500 lux, 1 month); conditions: liquid chromatogram
Procedure: as §1, with “in a 4500 lux of illumination box for” for “at 40° C. (high temperature). After”, “month. Liquid” for “month, liquid”, “tested after 1 month.” for “tested.”

Grinding stability = conditions: grinding in a glass mortar for 5 minutes
Procedure: Crystal form II of (S)—N-[5-[1-(3-ethoxy-4-methoxyphenyl)-2-(methylsulfonyl)ethyl]-4,6-dioxo-5,6-dihydro-4H-thieno[3,4-c]pyrrole-1-yl]acetamide prepared according to the process of Example 1 was ground in a glass mortar for 5 minutes. The ground samples were tested with XRPD.

[4] = Pressure stability (tablet press); conditions: single punch tablet press, tablet 6 mm, hardness 25-30 N; DSC (FIG. 5)
Procedure: Crystal form II of (S)—N-[5-[1-(3-ethoxy-4-methoxyphenyl)-2-(methylsulfonyl)ethyl]-4,6-dioxo-5,6-dihydro-4H-thieno[3,4-c]pyrrole-1-yl]acetamide was pressed by tablet press machine with single punch. The diameter of the tablet was 6 mm and the hardness was 25-30 N. DSC test was carried out on pressed powder.

Hygroscopicity (RH=80%) = assay: Hygroscopicity (RH=80%)
Procedure: Hygroscopicity of crystal form II of (S)—N-[5-[1-(3-ethoxy-4-methoxyphenyl)-2-(methylsulfonyl)ethyl]-4,6-dioxo-5,6-dihydro-4H-thieno[3,4-c]pyrrole-1-yl]acetamide was studied. Crystal form II of (S)—N-[5-[1-(3-ethoxy-4-methoxyphenyl)-2-(methylsulfonyl)ethyl]-4,6-dioxo-5,6-dihydro-4H-thieno[3,4-c]pyrrole-1-yl]acetamide was placed in a drier containing saturated ammonium chloride solution (RH=80%) until weight was balanced. The crystal form was tested with XRPD.
Crystal form II of (S)—N-[5-[1-(3-ethoxy-4-methoxyphenyl)-2-(methylsulfonyl)ethyl]-4,6-dioxo-5,6-dihydro-4H-thieno[3,4-c]pyrrole-1-yl]acetamide prepared according to the process of Example 1 was tested.

[5] = day 0, before storage at 40° C., liquid chromatogram
[6] = storage at 40° C., 1 month, liquid chromatogram

stability under high temperature conditions (in words) ([1]; 40° C., 1 month): good stability
Relevant Substance Contents at Day 0 (%) [1, 5]: 0.10%
Relevant Substance Contents after 1 Month (%) [1, 6]: 0.12%
stability under high-temperature and high-humidity conditions (in words) ([2]; 40° C., 1 month): good stability
Relevant Substance Contents at Day 0 (%) [2, 5]: 0.11%
Relevant Substance Contents after 1 Month (%) [2, 6]: 0.11%
Relevant Substance Contents after 1 Month (%) ([3]; 4500 lux, 1 month): 0.06%
Relevant Substance Contents at Day 0 (%) ([3]; day 0, before illumination at 4500 lux): 0.06%
grinding stability (in words) (Grinding stability): good grinding stability
pressure stability (in words) [4]: good stability
hygroscopicity (in words) (Hygroscopicity (RH=80%); RH=80%): hardly absorbed moisture
Weight Increase (Hygroscopicity (RH=80%); RH=80% (saturated ammonium chloride solution) until weight balanced, mAPI 0.497 g): -0.001 g
Moisture Absorption (%) (Hygroscopicity (RH=80%); RH=80% until weight balanced): 0%
Crystal Form after Absorbing Moisture (Hygroscopicity (RH=80%); RH=80% until weight balanced, XRPD): did not change
SMILES: CCOc1cc([C@@H](CS(C)(=O)=O)N2C(=O)c3csc(NC(C)=O)c3C2=O)ccc1OC [crystal form II, (S)—N-[5-[1-(3-ethoxy-4-methoxyphenyl)-2-(methylsulfonyl)ethyl]-4,6-dioxo-5,6-dihydro-4H-thieno[3,4-c]pyrrole-1-yl]acetamide]
